Measured values: ChEMBL document CHEMBL1201862, “PubChem BioAssay data set” (2004)
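Test compounds were applied to cells in 96-well plates for 48 hours at 5 doses. GI50: concentration for 50% inhibition of growth.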 Activity calls are given as the source filed them. No stated cut-off is given here; in the data, active = GI50 up to about 1.1 µM and inactive = higher.

Key:
Assay in all cases: DTP human tumour cell line panel, 48 h
OVCAR-3 = system: OVCAR-3
HCT-116 = system: HCT-116
CCRF-CEM = system: CCRF-CEM
SF-295 = system: SF-295
SF-539 = system: SF-539
LOX IMVI = system: LOX IMVI
HOP-62 = system: HOP-62
A549 = system: A549
SF-268 = system: SF-268
UACC-257 = system: UACC-257
SR = system: SR
K562 = system: K562
EKVX = system: EKVX
OVCAR-8 = system: OVCAR-8
M14 = system: M14
SK-MEL-2 = system: SK-MEL-2
KM12 = system: KM12
A498 = system: A498

| Structure (SMILES) | GI50 (OVCAR-3) | GI50 (HCT-116) | GI50 (CCRF-CEM) | GI50 (SF-295) | GI50 (SF-539) | GI50 (LOX IMVI) | GI50 (HOP-62) | GI50 (A549) | GI50 (SF-268) | GI50 (UACC-257) | GI50 (SR) | GI50 (K562) | GI50 (EKVX) | GI50 (OVCAR-8) | GI50 (M14) | GI50 (SK-MEL-2) | GI50 (KM12) | GI50 (A498) |
| --- | --- | --- | --- | --- | --- | --- | --- | --- | --- | --- | --- | --- | --- | --- | --- | --- | --- | --- |
| CC1CCc2c(sc3ncnc(N/N=C/c4ccc(Cl)c(Cl)c4)c23)C1 (stereo not drawn) | 17 µM (inactive) | 4.55 µM (inactive) | 4.3 µM (inactive) | 11.4 µM (inactive) | 21.7 µM (inactive) | 11.9 µM (inactive) | 25.2 µM (inactive) | 4.13 µM (inactive) | 13.3 µM (inactive) | 31 µM (inactive) | 4.83 µM (inactive) | 4.4 µM (inactive) | 25 µM (inactive) | 17.9 µM (inactive) | 14.3 µM (inactive) | 10.3 µM (inactive) | – | – |
| CC1(C)C2C/C(=C\c3ccccc3)C(=O)C1C2 (stereo not drawn) | > 100 µM (inactive) | 90.4 µM (inactive) | > 100 µM (inactive) | > 100 µM (inactive) | > 100 µM (inactive) | > 100 µM (inactive) | > 100 µM (inactive) | 93.5 µM (inactive) | 79.8 µM (inactive) | 58.1 µM (inactive) | – | > 100 µM (inactive) | 86.9 µM (inactive) | > 100 µM (inactive) | > 100 µM (inactive) | > 100 µM (inactive) | > 100 µM (inactive) | > 100 µM (inactive) |
| COc1ccc(/N=C(/[N-]n2c(=O)c(C)nn(C)c2=S)N(c2ccc(OC)cc2)c2n[n+]3c(=O)c(C)nn(C)c3s2)cc1 | – | > 100 µM (inactive) | > 100 µM (inactive) | > 100 µM (inactive) | > 100 µM (inactive) | > 100 µM (inactive) | > 100 µM (inactive) | > 100 µM (inactive) | > 100 µM (inactive) | > 100 µM (inactive) | > 100 µM (inactive) | > 100 µM (inactive) | > 100 µM (inactive) | > 100 µM (inactive) | > 100 µM (inactive) | – | > 100 µM (inactive) | 93.3 µM (inactive) |
| COc1cc(C2c3cc4c(cc3[C@@H](NCCN3CCCCC3)C3COC(=O)[C@H]23)OCO4)cc(OC)c1O (stereo partly drawn) | 1.04 µM (active) | 1.82 µM (inactive) | 0.055 µM (active) | 0.0986 µM (active) | 0.209 µM (active) | 0.204 µM (active) | 0.0624 µM (active) | 0.0484 µM (active) | 0.628 µM (active) | 2.93 µM (inactive) | – | 0.822 µM (active) | 1.63 µM (inactive) | 0.998 µM (active) | 0.324 µM (active) | 2.06 µM (inactive) | 1.08 µM (active) | 0.237 µM (active) |
| Nc1nc(-c2ccco2)cc(-c2ccc(CO)o2)n1 | > 100 µM (inactive) | > 100 µM (inactive) | 76.4 µM (inactive) | > 100 µM (inactive) | > 100 µM (inactive) | > 100 µM (inactive) | > 100 µM (inactive) | > 100 µM (inactive) | > 100 µM (inactive) | – | > 100 µM (inactive) | > 100 µM (inactive) | > 100 µM (inactive) | > 100 µM (inactive) | > 100 µM (inactive) | > 100 µM (inactive) | > 100 µM (inactive) | – |
| CC(=O)OCCOCNC(=S)N/N=C/c1ccc(Br)s1 | > 89.1 µM (inactive) | 55 µM (inactive) | 3.74 µM (inactive) | > 76 µM (inactive) | > 100 µM (inactive) | 77.1 µM (inactive) | > 100 µM (inactive) | > 88.7 µM (inactive) | > 100 µM (inactive) | > 100 µM (inactive) | – | > 20.8 µM (inactive) | > 36.2 µM (inactive) | > 100 µM (inactive) | > 100 µM (inactive) | > 100 µM (inactive) | > 100 µM (inactive) | > 100 µM (inactive) |
| CCCCCCCCCCCCCCCCOP(=O)(O)Oc1ccc(/C=C\c2ccc(OP(=O)(O)OCCCCCCCCCCCCCCCC)cc2)cc1 | 43.2 µM (inactive) | 54 µM (inactive) | 29 µM (inactive) | 29.6 µM (inactive) | – | > 100 µM (inactive) | 38.1 µM (inactive) | 82.4 µM (inactive) | 34.9 µM (inactive) | > 100 µM (inactive) | 30 µM (inactive) | 36.1 µM (inactive) | > 100 µM (inactive) | 12.2 µM (inactive) | 45.6 µM (inactive) | > 100 µM (inactive) | 56.2 µM (inactive) | 83.9 µM (inactive) |
| CC(=O)NC(CCCNCc1ccccc1)C(=O)NCc1ccccc1 (stereo not drawn) | > 100 µM (inactive) | > 100 µM (inactive) | > 100 µM (inactive) | > 100 µM (inactive) | > 100 µM (inactive) | > 100 µM (inactive) | > 100 µM (inactive) | > 100 µM (inactive) | > 100 µM (inactive) | > 100 µM (inactive) | – | > 100 µM (inactive) | > 100 µM (inactive) | > 100 µM (inactive) | > 100 µM (inactive) | > 100 µM (inactive) | > 100 µM (inactive) | > 100 µM (inactive) |
